From BindingDB's records for PubMed 36262403 (Abbvie, 2022)
pIC50: −log10 of the molar value.

Molecular target: T1, P2X purinoceptor 7 (Rattus norvegicus, UniProt Q64663)
T1 sequence (Q64663 whole entry): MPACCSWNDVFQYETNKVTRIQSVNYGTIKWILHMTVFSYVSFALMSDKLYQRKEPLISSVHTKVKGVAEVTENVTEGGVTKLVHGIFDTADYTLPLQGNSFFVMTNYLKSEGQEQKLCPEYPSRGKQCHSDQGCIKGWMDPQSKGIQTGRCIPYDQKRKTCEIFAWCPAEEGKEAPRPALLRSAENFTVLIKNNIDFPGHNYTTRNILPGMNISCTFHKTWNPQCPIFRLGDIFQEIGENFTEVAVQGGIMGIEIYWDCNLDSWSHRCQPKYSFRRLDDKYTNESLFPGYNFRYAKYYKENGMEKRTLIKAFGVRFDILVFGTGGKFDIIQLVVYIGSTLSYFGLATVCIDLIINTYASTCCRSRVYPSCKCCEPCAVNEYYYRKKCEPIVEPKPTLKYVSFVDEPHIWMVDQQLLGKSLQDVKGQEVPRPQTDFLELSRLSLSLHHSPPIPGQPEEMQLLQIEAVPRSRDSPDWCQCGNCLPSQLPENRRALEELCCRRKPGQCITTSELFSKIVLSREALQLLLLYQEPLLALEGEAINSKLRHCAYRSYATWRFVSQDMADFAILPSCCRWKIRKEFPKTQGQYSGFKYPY
Test: Antagonist activity against rat P2X7R expressed in human 1321N1 cell membrane incubated for 1 hrs by radioligand binding assay

pIC50: 8.00
Compound: C[C@H](NC(=Nc1cccc2ncccc12)NC#N)c1ccccc1 [[3H]A-804598]
